“And” between values parts separate entries of the source, which are not always exact repeats. Equal values may be shown once. Read-outs that look alike come from different tables or passages of the source.
Experiments:
MitM [1] = molecular target: T1, MitM (Streptomyces lavendulae, UniProt Q9X5Q9); type: biochemical, S. lavendulae; settings: Example 4; with SAM
[2] = test system: E. coli strain PJS100 (mrd expressing); experiment: MC resistance phenotype of E. coli, plate count; type: cell-based
Text: MC resistance phenotppe of E. coli.

MitN = MitN (Streptomyces lavendulae, UniProt Q9X5Q8); experiment: Enzyme assay and kinetic measurement, aziridine N-methyltransferase (Example 5); type: biochemical, S. lavendulae; settings: for conversion of candidate substrate by MitN: in the presence of SAM, TLC/HPLC
Protocol: (§1) pDHS7801 and pDHS7802 were transforned into E. coli BL21 (DE3) strain for the overexpression of MitM and MitN, respectively. E. coli cells were grown at 37° C. in NZCM broth containing 50 μg/ml kanamycin until OD600=0.6. Expression of MitM (or MitN) was induced by adding IPTG to a final concentration of 0.1 mM and reducing the temperature to 25° C. After incubating the culture overnight, cells were harvested, suspended in ice-cooled lysis buffer (50 mM NaH2PO4, pH 8.0; 300 mM NaCl; 10 mM imidazole), and lysed by sonication (6×10 seconds with 10 second pauses at 200-300 W). The supernatant collected by centrifuging the lysate at 10,000 g at 4° C. was used to pass through a Qiagen Ni-NTA column as specified by the manufacturer. The column was […] twice with wash buffer (50 mM NaH2PO4, pH 8.0; 300 mM NaCl; 20 mM imidazole) followed by dissolving the protein in elution buffer (50 mM NaH2PO4, pH 8.0; 300 mM NaCl; 250 mM imidazole). The protein eluted from the column was then precipitated with 60% ammonia sulfate, desalted by passing through a Pharmacia PD-10 column, and dissolved in 50 mM pH7.4 potassium buffer with 1 mM PMSF. The protein concentration was determined using the Bradford Assay with BSA as the standard.
(§2) The reactions were incubated at 30° C. for 30 minutes and were terminated by twice equal volume of ethyl acetate extraction.
(§3) The calculations were carried out using Kcat computer program by fitting the data to a Michaelis-Menton equation by linear regression.

MitM [3] = molecular target: T1, MitM; experiment: as above; type: biochemical, S. lavendulae; settings: for conversion of candidate substrate by MitM: in the presence of SAM, TLC/HPLC
Protocol: as §1, §2, §3

[4] = test system: E. coli strain PJS103 (mct-mrd co-expressing)
Protocol: Construction of mct-mrd co-expression plasmid. […] The fragment contained the mrd gene under the control of the T7 promoter, including transcriptional terminator sequences (rrnB T1) upstream and downstream of mrd.
(§4) The cultures were grown overnight at 37° C. and colony-forming units (CFUs) were determined.

[5] = molecular target: carminomycin O-methyltransferase (CMT) (Streptomyces sp., UniProt Q55216); settings: read-out: Km for SAM; cited from earlier work
[6] = molecular target: macrocin O-methyltransferase (MOMT) (Streptomyces fradiae, UniProt Q9S4D5); settings: read-out: Km for SAM; cited from earlier work
[7] = molecular target: 31-O-demethylFK506 O-methyltransferase (FKMT) (Streptomyces tacrolimicus, UniProt P74838); settings: read-out: Km for SAM; cited from earlier work
[8] = test system: 31-O-desmethylimmunomycin O-methyltransferase (DIMT); settings: read-out: Km for SAM; cited from earlier work
[9] = molecular target: demethylmacrocin O-methyltransferase (DMOMT) (Streptomyces fradiae, UniProt Q9ZHQ4); settings: read-out: Km for SAM; cited from earlier work
[10] = test system: C[S+](CC[C@H](N)C(=O)O)C[C@H]1O[C@@H](n2cnc3c(N)ncnc32)[C@H](O)[C@@H]1O; experiment: purified protein, by the assay type
[11] = test system: E. coli BL21(DE3)::pET17b vector control strain; experiment: [^3H]-MC uptake assay; type: cell-based; settings: [^3H]-MC 0.022 μg/ml
Protocol: (§5) [^3H]-MC uptake assay of strains PJS102 and PJS103. [^3H]-MC was obtained from Kyowa Hakko Kogyo, Ltd. Uptake studies were performed for whole cells of PJS100, PJS102, PJS103 and E. coli BL21 (DE3)::pT7SC and pET17b. PJS100, PJS102, and PJS103 as well as vectoronly cultures were cultured (37° C.) in 5 ml of NCZYM medium with IPTG added to a final concentration of 1 mM (at approximately 3 hours growth). At 9 hours (late exponential phase), cells were harvested by centrifugation and resuspended in 1 ml NCZYM broth (5×concentration). The concentrated suspension of late-exponential growth phase cells was exposed to [^3H]-MC (59 Ci/mmol) at a final concentration of 0.022 μg/ml (0.0655 nmol). Aliquots (100 μl) were removed at frequent intervals, placed on […] GF/C filters (Whatman International, Maidstone, U.K.) and washed once with 6 ml of 0.85% NaCl poured over the filters under vacuum pressure. Additional aliquots were simultaneously removed for determination of protein content (protein assay kit, Bio-Rad Laboratories, Richmond, Calif.). Radioactivity on the filters was quantified using a Beclkan LS7000 scintillation counter. Results were expressed as nanograins of mitomycin per milligram of cell protein.
(§6) MC uptake by E. coli cells expressing mct, mrd or mct/mrd. Since the deduced amino acid sequence of the mct gene was similar to antibiotic export proteins, reduced accumulation of MC in MCT-expressing cells would be expected. An assay, modeled after experiments used to study tetracycline efflux-mediated resistance in E. coli (Levy and McMurry, 1978), was designed to study the uptake of [^3H]-MC by the susceptible vector control and resistant mct, mrd and mct/mrd expressing E. coli strains.

E. coli strain PJS100 = experiment: [^3H]-MC uptake assay; type: cell-based; settings: at 30 minutes
Protocol: as §5, §6

E. coli strain PJS103 = experiment: [^3H]-MC uptake assay; type: cell-based
Protocol: as §5, §6

E. coli strain PJS102 = experiment: [^3H]-MC uptake assay; type: cell-based; settings: at 5 minutes; [^3H]-MC 0.022 μg/ml
Protocol: as §5, §6

[12] = test system: E. coli BL21 (DE3)::pET17b (vector control)
Protocol: as §4

S. lavendulae wild-type = experiment: Resistance of S. lavendulae strains to MC, plate count; type: cell-based, Streptomyces lavendulae
Text: To establish a physiological role for MCT in S. lavendulae, the corresponding gene (mct) was inactivated by insertion of the aphII gene from transposon Tn5 to give pDHS7704.

[13] = test system: E. coli strain PJS102 (mct expressing); experiment: MC resistance phenotype of E. coli, plate count; type: cell-based
Protocol: Construction of mct expression plasmid. For the construction of the E. coli expression plasmid NdeI and HindIII sites were introduced at the translational start codon and downstream of the translational stop codon of mct, respectively. […] The PCR was carried out using 2.5 U of Taq polymerase, 0.4 μg of each primer, 1 μg of pDHS7661 DNA as template, […] each of dATP-dGTP-dCTP-dTTP, 1.5 mM MgCl2, and 10 μl of 10×Promega PCR buffer in a total volume of 100 μl .
as §4

Compound: mitomycin G
- enzymatic conversion (methylation) by MitM (MitM [1]): no conversion products were observed

Compound: COC1=C(C)C(=O)C2=C(C1=O)[C@H](COC(N)=O)[C@@]1(O)[C@@H]3[C@H](CN21)N3C (stereo partly shown) [Mitomycin B, mitomycin B]
- Plate count CFU/ml ([2]; Mitomycin B tested at a concentration of 1.0 μg/ml): >10^7b CFU/ml
- conversion of candidate substrate by MitN (MitN): no conversions were detected
- conversion of candidate substrate by MitM (MitM [3]): no conversions were detected
- resistance of strain PJS103 to mitomycin B [4]: high-level resistance
- Plate count CFU/ml ([4]; Mitomycin B tested at a concentration of 15 μg/ml): >10^7d CFU/ml
- enzymatic conversion (methylation) by MitM (MitM [1]): no conversion products were observed

Compound: C=C1C2=C(C(=O)C(C)=C(OC)C2=O)N2C[C@H]3[C@H](N3C)[C@]12O (stereo partly shown) [MH, mitomycin H]
- conversion of candidate substrate by MitN (MitN): no conversions were detected
- conversion of candidate substrate by MitM (MitM [3]): no conversions were detected

Compound: CC1=C(N)C(=O)C2=C(C1=O)N1C[C@H]3[C@H](N3C)[C@]1(O)[C@H]2COC(N)=O (stereo partly shown) [MD, mitomycin D]
- conversion of candidate substrate by MitN (MitN): no conversions were detected
- conversion of candidate substrate by MitM (MitM [3]): no conversions were detected
- enzymatic conversion (methylation) by MitM (MitM [1]): no conversion products were observed

Compound: C[S+](CC[C@H](N)C(=O)O)C[C@H]1O[C@@H](n2cnc3c(N)ncnc32)[C@H](O)[C@@H]1O (stereo partly drawn) [SAM, S-adenosyl-L-methionine]
- Km [5]: 25 µM
- Km [6]: 23 µM
- Km [7]: 28 µM
- Vmax for SAM (MitN; MitN, pH 7.4, MA fixed 200 μM): 49.4 ± 5.3 nmol/mg/min
- Vmax for SAM (MitM [3]; MitM, pH 7.4, MA fixed 200 μM): 29.8 ± 4.5 nmol/mg/min
- Km [8]: 13 µM
- Km [9]: 111 µM

Compound: MitN (Streptomyces lavendulae)
- Km ([10]; other: MitN, pH 7.4, MA fixed 200 μM, SAM 40-400 μM, pH 7.4): 86.6 µM and 87 µM

Compound: COC1=C(C)C(=O)C2=C(C1=O)[C@@H](COC(N)=O)[C@H]1[C@H]3N[C@H]3CN21 [9a-demethoxy mitomycin A]
- enzymatic conversion (methylation) by MitM (MitM [1]): methylate specifically the aziridine nitrogen

Compound: COC1=C(C)C(=O)C2=C(C1=O)[C@@H](COC(N)=O)[C@@]1(OC)[C@H]3N[C@H]3CN21 [MA, mitomycin A]
- Vmax for MA (MitN; MitN, pH 7.4, SAM fixed 200 μM): 75.9 ± 2.4 nmol/mg/min
- conversion of candidate substrate by MitN (MitN): new product was formed
- Km (MitN; read-out: Km for MA, MitN, pH 7.4, SAM fixed 200 μM, MA 30-300 μM): 94.7 µM and 95 µM
- Vmax for MA (MitM [3]; MitM, pH 7.4, SAM fixed 200 μM): 57.4 ± 4.2 nmol/mg/min
- conversion of candidate substrate by MitM (MitM [3]): new product was formed
- Km (MitM [3]; read-out: Km for MA, MitM, pH 7.4, SAM fixed 200 μM, MA 30-300 μM): 169 µM
- enzymatic conversion (methylation) by MitM (MitM [1]): methylated at the aziridine nitrogen

Compound: CO[C@@]12[C@H](COC(N)=O)C3=C(C(=O)C(C)=C(N)C3=O)N1C[C@@H]1N[C@@H]12 [MC, mitomycin C]
- Plate count CFU/ml ([2]; MC 1.0 μg/ml): 3.3 × 10^6 CFU/ml
- Plate count CFU/ml ([2]; MC 5.0 μg/ml): 2.7 × 10^6 CFU/ml
- Plate count CFU/ml ([2]; MC 10 μg/ml): 6.1 × 10^5 CFU/ml
- Plate count CFU/ml ([2]; MC 20 μg/ml): 2.5 × 10^5 CFU/ml
- Plate count CFU/ml ([2]; MC 30 μg/ml): 5.0 × 10^2 CFU/ml
- Plate count CFU/ml ([2]; MC 60 μg/ml): 0.0 CFU/ml
- time at which MC accumulation reaches maximum level [11]: 5 min
- MC accumulation, % higher than the drug-sensitive vector control (E. coli strain PJS100): 42%
- MC accumulation as % of E. coli cells bearing vector alone (E. coli strain PJS103; at 5 minutes, [^3H]-MC 0.022 μg/ml): 35%
- MC accumulation, % greater than strain PJS102 (E. coli strain PJS103; over the course of the experiment): about 23%
- MC accumulation as % of the susceptible control (E. coli strain PJS102): 25%
- Plate count CFU/ml ([12]; MC 0.01 μg/ml): >10^7 CFU/ml
- Plate count CFU/ml ([12]; MC 0.1 μg/ml): 7.3 × 10^3 CFU/ml
- Plate count CFU/ml ([12]; MC 0.5 μg/ml): 3.2 × 10^2 CFU/ml
- Plate count CFU/ml ([12]; MC 1.0 μg/ml): 0.0 CFU/ml
- MC resistance level of the wild-type S. lavendulae (S. lavendulae wild-type): > 150 μg(ml
- Plate count CFU/ml (S. lavendulae wild-type; MC 40 μg/ml): 5.3 × 10^3 CFU/ml
- Plate count CFU/ml (S. lavendulae wild-type; MC 100 μg/ml): 2.0 × 10^3 CFU/ml
- conversion of candidate substrate by MitN (MitN): no conversions were detected
- conversion of candidate substrate by MitM (MitM [3]): no conversions were detected
- Plate count CFU/ml ([4]; MC 80 μg/ml): 1.4 × 10^5 CFU/ml
- Plate count CFU/ml ([4]; MC 100 μg/ml): 9.6 × 10^3 CFU/ml
- Plate count CFU/ml ([4]; MC 150 μg/ml): 3.0 × 10^1 CFU/ml
- enzymatic conversion (methylation) by MitM (MitM [1]): no conversion products were observed
- Plate count CFU/ml ([13]; MC 0.5 μg/ml): 2.1 × 10^5 CFU/ml
- Plate count CFU/ml ([13]; MC 1.0 μg/ml): 5.9 × 10^4 CFU/ml
- Plate count CFU/ml ([13]; MC 2.5 μg/ml): 2.0 × 10^2 CFU/ml
- Plate count CFU/ml ([13]; MC 5.0 μg/ml): 0.0 CFU/ml

Compound: MitM (Streptomyces lavendulae)
- Km ([10]; other: MitM, 400 μM mitomycin A, pH 7.0): 30 µM
- Km ([10]; other: MitM, pH 7.4, MA fixed 200 μM, SAM 40-400 μM, pH 7.4): 22.8 µM and 23 µM

Reference: patent US20030134398A1, “Mitomycin biosynthetic gene cluster” (priority 2001, published 2003)
